# Source: patent publication US20220144812A1, “QUINOLINE DERIVATIVES AND THEIR USE FOR THE TREATMENT OF CANCER” (Epizyme, Inc., priority 2019, published 2022)
# Like-named read-outs stand apart in the source and are kept apart here.
# What was measured:
# CREBBP (1084-1701) = biological target: T1, CREBBP (1084-1701) (Homo sapiens, UniProt Q92793); experiment: Biochemical assay for CREBBP (1084-1701), SAMDI; details: SAMDI, read-out: CREBBP Biochemistry IC50
# T1 construct: measured in the following biochemical assay using CREBBP (1084-1701); purchased
# T1 sequence (Q92793 1084-1701): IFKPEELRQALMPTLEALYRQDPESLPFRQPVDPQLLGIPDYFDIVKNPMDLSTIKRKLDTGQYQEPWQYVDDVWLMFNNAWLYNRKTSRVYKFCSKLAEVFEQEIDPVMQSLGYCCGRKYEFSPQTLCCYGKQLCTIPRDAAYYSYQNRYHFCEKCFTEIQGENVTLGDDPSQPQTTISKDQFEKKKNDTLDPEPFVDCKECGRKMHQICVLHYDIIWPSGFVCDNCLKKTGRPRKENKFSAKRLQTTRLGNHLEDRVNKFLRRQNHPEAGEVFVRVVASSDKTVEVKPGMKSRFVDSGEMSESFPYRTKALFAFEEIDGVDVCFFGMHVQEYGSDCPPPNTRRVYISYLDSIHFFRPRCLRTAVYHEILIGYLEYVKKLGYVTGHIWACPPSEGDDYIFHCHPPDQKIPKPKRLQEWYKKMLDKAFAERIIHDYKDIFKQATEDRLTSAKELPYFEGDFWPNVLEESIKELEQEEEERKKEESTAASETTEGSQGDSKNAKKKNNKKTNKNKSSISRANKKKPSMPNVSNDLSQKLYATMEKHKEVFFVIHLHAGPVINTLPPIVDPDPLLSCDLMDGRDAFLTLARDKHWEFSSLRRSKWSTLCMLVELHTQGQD
# How it was run: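 Acetyltransferase activity measured by SAMDI mass spectrometry after capture on biochip. Enzyme sat with compound 30 min at RT before acetyl-CoA and biotinylated H3 11-25 (K14R, K23R) peptide were added for 30 min at RT. Formic acid quench, bicarbonate neutralisation; IC50 values reported.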
# 647V cells = experiment: High throughput proliferation (HTP) assay; assay type: cell-based; details: high throughput proliferation, read-out: CREBBP HTP IC50
# Excerpt: The following example describes methods and materials relating to a high throughput proliferation (HTP) assay. IC50 values (micromolar) are summarized in Table 1, Table 2, and Table 3 under the column labeled: “CREBBP HTP IC50 (micromolar).”
# MATERIALS: 647V cell line, Dulbecco's MEM, penicillin-streptomycin, heat inactivated fetal bovine serum, D-PBS, and CellTiter-Glo were commercially available.
# 647V adherent cells were maintained in complete growth medium (Dulbecco's MEM supplemented with 15% v/v heat inactivated fetal bovine serum) and cultured at 37° C. under 5% CO2.
# METHOD: Measurement of the effect of compound in High Throughput Proliferation (HTP) assays was performed as follows: Exponentially growing 647V cells were plated, in triplicate, in 384-well plates at the appropriate cell density in a final volume of 50 μl. Cells were incubated in the presence of increasing concentrations of compound. Viable cell number was determined at day 7 by addition of 35 μl CellTiter-Glo to each well of the plate, incubated in the dark for 30 minutes, and read on a PerkinElmer EnVision instrument to enumerate the number of cells.
# [1] = test system: H3K18Ac in HB-CLS-2 cells; experiment: H3K18AC in-cell western (ICW) assay; assay type: cell-based; details: H3K18Ac in-cell western, read-out: CREBBP ICW IC50
# How it was run: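 In-cell western: after methanol fixation, blocking, overnight 4° C anti-H3K18Ac staining, then 800CW secondary plus DRAQ5 for DNA content, integrated intensities were scanned at 800 and 700 nm. Before this, compound exposure lasted 2 hr at 37° C in HB-CLS-2 cells plated 16–24 hours earlier. Values expressed as IC50 (μM).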
# EP300 (P300(1048-1664)) = biological target: T2, EP300 (P300(1048-1664)) (Homo sapiens, UniProt Q09472); experiment: Biochemical assay for EP300, SAMDI; details: EP300, SAMDI; read-out: EP300 Biochemistry IC50
# T2 construct: P300(1048-1664)
# T2 sequence (Q09472 1048-1664): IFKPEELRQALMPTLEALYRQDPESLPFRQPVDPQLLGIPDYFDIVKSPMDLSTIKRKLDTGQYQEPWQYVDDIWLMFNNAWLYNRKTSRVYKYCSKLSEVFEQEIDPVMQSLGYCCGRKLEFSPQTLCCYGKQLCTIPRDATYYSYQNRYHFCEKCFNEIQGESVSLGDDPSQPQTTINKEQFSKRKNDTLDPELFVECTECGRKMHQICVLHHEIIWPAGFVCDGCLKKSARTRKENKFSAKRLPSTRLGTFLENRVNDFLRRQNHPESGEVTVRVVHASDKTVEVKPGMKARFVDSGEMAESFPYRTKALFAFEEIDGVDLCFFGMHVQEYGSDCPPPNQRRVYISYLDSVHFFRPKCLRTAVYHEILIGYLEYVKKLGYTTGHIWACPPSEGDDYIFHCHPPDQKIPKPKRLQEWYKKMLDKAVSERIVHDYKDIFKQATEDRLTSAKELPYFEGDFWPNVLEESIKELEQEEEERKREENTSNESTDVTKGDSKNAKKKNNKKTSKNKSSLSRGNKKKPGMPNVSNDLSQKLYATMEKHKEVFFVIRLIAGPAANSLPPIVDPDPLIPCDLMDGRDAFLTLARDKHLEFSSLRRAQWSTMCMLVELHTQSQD
# Excerpt: The following example describes materials and methods relating to a biochemical assay for EP300. IC50 values (micromolar (μM)) are summarized in Table 1, Table 2, and Table 3 under the column labeled: “EP300 Biochemistry IC50 (micromolar).”
# [2] = Homo sapiens, 647-V, 647V cells
smiles,measurement,setting,value
CCn1ncc(CN(C)C(=O)c2nc(-c3cc(C)cc(NC4CNC4)c3)nc3ccc(Cl)cc23)c1C [Compound 444],IC50,CREBBP (1084-1701),12.3 nM
same,IC50,"647V cells; Homo sapiens, 647-V",58.2 nM
same,IC50,[1],160 nM
same,IC50,EP300 (P300(1048-1664)),4.1 nM
CCc1nn(C)c(CN(C)C(=O)c2cc(-c3ccc(NCCN(C)C)c(C)n3)nc3ccc(Cl)cc23)c1C [Compound 587],IC50,CREBBP (1084-1701),14200 nM
same,IC50,"647V cells; Homo sapiens, 647-V",1610 nM
same,IC50,[1],8020 nM
same,IC50,EP300 (P300(1048-1664)),17300 nM
CCn1ncc(CN(C)C(=O)c2nc(-c3ccc4c(N)[nH]nc4c3C)nc3ccc(Cl)cc23)c1C [Compound 402],IC50,CREBBP (1084-1701),62 nM
same,IC50,647V cells; [2],310 nM
same,IC50,[1]; HB-CLS-2 cells,350 nM
same,IC50,EP300 (P300(1048-1664)),300 nM
CCn1ncc(CN(C)C(=O)c2nc(-c3cc(C(F)(F)F)c4[nH]nc(N)c4c3)nc3ccc(Cl)cc23)c1C [Compound 618],IC50,CREBBP (1084-1701),53.7 nM
same,IC50,"647V cells; Homo sapiens, 647-V",701 nM
same,IC50,[1],248 nM
same,IC50,EP300 (P300(1048-1664)),285 nM
CCn1ncc(CN(C)C(=O)c2nc(-c3ccc(OCCNC)cc3Cl)nc3ccc(Cl)cc23)c1C [Compound 23],IC50,CREBBP (1084-1701),46 nM
same,IC50,"647V cells; Homo sapiens, 647-V",82 nM
same,IC50,[1],190 nM
same,IC50,EP300 (P300(1048-1664)),50 nM
CCn1ncc(CN(C)C(=O)c2nc(-c3cc(C(=O)NCCCN4CCCC4)n(Cc4ccc(OC)cc4)n3)nc3ccc(Cl)cc23)c1C [Compound 163],IC50,CREBBP (1084-1701),62000 nM
same,IC50,"647V cells; Homo sapiens, 647-V",2700 nM
same,IC50,[1],12000 nM
same,IC50,EP300 (P300(1048-1664)),35000 nM
CCn1ncc(CN(C)C(=O)c2nc(-c3ccc(OCCCO)c(C)c3)nc3ccc(Cl)cc23)c1C [Compound 66],IC50,CREBBP (1084-1701),380 nM
same,IC50,"647V cells; Homo sapiens, 647-V",540 nM
same,IC50,[1],730 nM
same,IC50,EP300 (P300(1048-1664)),780 nM
CCn1ncc(CN(C)C(=O)c2nc(-c3cc(N)c4cn[nH]c4c3)nc3ccc(COC)cc23)c1C [Compound 499],IC50,CREBBP (1084-1701),14.9 nM
same,IC50,"647V cells; Homo sapiens, 647-V",183 nM
same,IC50,[1],137 nM
same,IC50,EP300 (P300(1048-1664)),3.5 nM
CCn1ncc(CN(C)C(=O)c2nc(-c3cnc(CO)n3C)nc3ccc(Cl)cc23)c1C [Compound 208],IC50,CREBBP (1084-1701),50000 nM
same,IC50,647V cells; [2],20000 nM
same,IC50,[1]; HB-CLS-2 cells,20000 nM
same,IC50,EP300 (P300(1048-1664)),36000 nM
CCc1ncc(CN(C)C(=O)c2cc(-c3ccc(NC4CCOCC4)c(C)n3)nc3ccc(Cl)cc23)n1C [Compound 517],IC50,CREBBP (1084-1701),36.1 nM
same,IC50,"647V cells; Homo sapiens, 647-V",107 nM
same,IC50,[1],159 nM
same,IC50,EP300 (P300(1048-1664)),12.1 nM
CCn1ncc(CN(C)C(=O)c2cc(-c3cc(C4=NCCN4)n(C)n3)nc3ccc(Cl)cc23)c1C [Compound 582],IC50,CREBBP (1084-1701),25.8 nM
same,IC50,"647V cells; Homo sapiens, 647-V",122 nM
same,IC50,[1],65.5 nM
same,IC50,EP300 (P300(1048-1664)),9.3 nM
CCn1ncc(CN(C)C(=O)c2cc(-c3ccc(NCCNC)c(C)n3)nc3ccc(COC)cc23)c1C [Compound 432],IC50,CREBBP (1084-1701),39.6 nM
same,IC50,"647V cells; Homo sapiens, 647-V",106 nM
same,IC50,[1],155 nM
same,IC50,EP300 (P300(1048-1664)),18.6 nM
CCn1ncc(CN(C)C(=O)c2nc(-c3ccn(CCCN4CCCC4)n3)nc3ccc(Cl)cc23)c1C [Compound 184],IC50,647V cells,15000 nM
same,IC50,EP300 (P300(1048-1664)),163000 nM
Cc1n[nH]c(C)c1CN(C)C(=O)c1nc(-c2cccc(Cl)c2)nc2ccc(Cl)cc12 [Compound 248],IC50,647V cells; [2],19000 nM
same,IC50,[1]; HB-CLS-2 cells,20000 nM
same,IC50,EP300 (P300(1048-1664)),114000 nM
CCn1ncc(CN(C)C(=O)c2cc(-c3cc(C)nc(C)n3)nc3ccc(Cl)cc23)c1C [Compound 411],IC50,CREBBP (1084-1701),50000 nM
same,IC50,EP300 (P300(1048-1664)),50000 nM
CCn1ncc(CN(C)C(=O)c2nc(-c3cn(CCNC)cn3)nc3ccc(Cl)cc23)c1C [Compound 228],IC50,647V cells; [2],20000 nM
same,IC50,[1]; HB-CLS-2 cells,20000 nM
same,IC50,EP300 (P300(1048-1664)),140000 nM
CCn1ncc(CN(C)C(=O)c2nc(-c3ccc(OCCNC(=O)C(C)C)c(Cl)c3)nc3ccc(Cl)cc23)c1C [Compound 416],IC50,647V cells; [2],400 nM
same,IC50,[1]; HB-CLS-2 cells,400 nM
same,IC50,EP300 (P300(1048-1664)),180 nM
CCn1ncc(CN(C)C(=O)c2nc(N3CCNCC3)nc3ccc(Cl)cc23)c1C [Compound 202],IC50,[1]; HB-CLS-2 cells,20000 nM
same,IC50,EP300 (P300(1048-1664)),175000 nM
CCn1ncc(CN(C)C(=O)c2nc(-c3ccc(OCCCN(C)C(=O)OC(C)(C)C)c(C)c3)nc3ccc(Cl)cc23)c1C [Compound 183],IC50,CREBBP (1084-1701),18000 nM
same,IC50,647V cells,8700 nM
same,IC50,EP300 (P300(1048-1664)),42000 nM
CCn1ncc(CN(C)C(=O)c2nc(N3CCn4ncnc4C3)nc3ccc(Cl)cc23)c1C [Compound 190],IC50,"647V cells; Homo sapiens, 647-V",20000 nM
same,IC50,[1],20000 nM
same,IC50,EP300 (P300(1048-1664)),103000 nM
CCn1ncc(CN(C)C(=O)c2nc(-c3cc(C)c4cn[nH]c4c3)nc3ccc(Cl)cc23)c1C [Compound 412],IC50,647V cells; [2],150 nM
same,IC50,[1]; HB-CLS-2 cells,250 nM
same,IC50,EP300 (P300(1048-1664)),130 nM
CCn1ncc(CN(C)C(=O)c2nc(-c3cnc(CNC(C)=O)n3C)nc3ccc(Cl)cc23)c1C [Compound 237],IC50,EP300 (P300(1048-1664)),50000 nM
CCn1ncc(CN(C)C(=O)c2nc(-c3cccc(Cl)c3)nc3cc(N4CCOCC4)c(Cl)cc23)c1C [Compound 200],IC50,CREBBP (1084-1701),190000 nM
same,IC50,[1]; HB-CLS-2 cells,20000 nM
same,IC50,EP300 (P300(1048-1664)),126000 nM
CCn1ncc(CN(C)C(=O)c2nc(-c3cc(C(=O)NC)nn3C)nc3ccc(P(C)(C)=O)cc23)c1C [Compound 393],IC50,CREBBP (1084-1701),50000 nM
same,IC50,647V cells; 647V cells,8600 nM
same,IC50,EP300 (P300(1048-1664)),50000 nM
Cc1c(CN(C)C(=O)c2nc(-c3cc(Cl)cc(CNC4CCCCC4)c3)nc3ccc(Cl)cc23)cnn1CO [Compound 236],IC50,[1]; HB-CLS-2 cells,20000 nM
same,IC50,EP300 (P300(1048-1664)),13000 nM
CCn1ncc(CN(C)C(=O)c2nc(-c3ccccc3Cl)nc3c(C#N)cccc23)c1C [Compound 211],IC50,CREBBP (1084-1701),32000 nM
same,IC50,647V cells; 647V cells,15000 nM
same,IC50,EP300 (P300(1048-1664)),17000 nM
CCn1ncc(CN(C)C(=O)c2nc(-c3cn(CCCNC)cn3)nc3ccc(Cl)cc23)c1C [Compound 247],IC50,647V cells; [2],20000 nM
same,IC50,[1]; HB-CLS-2 cells,20000 nM
same,IC50,EP300 (P300(1048-1664)),157000 nM
CCn1ncc(CN(C)C(=O)c2nc(-c3cc(C(=O)NC)on3)nc3ccc(Cl)cc23)c1C [Compound 215],IC50,[1]; HB-CLS-2 cells,20000 nM
same,IC50,EP300 (P300(1048-1664)),41000 nM
CCn1ncc(CN(C)C(=O)c2cc(-c3cnn[nH]3)nc3ccc(Cl)cc23)c1C [Compound 307],IC50,EP300 (P300(1048-1664)),8000 nM
CCn1ncc(CN(C)C(=O)c2nc(-c3cc(C(=O)NC)n(C)n3)nc3ccc(COC)cc23)c1C [Compound 630],IC50,CREBBP (1084-1701),149 nM
same,IC50,[1],341 nM
same,IC50,EP300 (P300(1048-1664)),72 nM
